In patent publication US4602025A, “Aromatase inhibitors” (Eli Lilly and Company, priority 1984, dated 1986):

Assays:
[1] = biological target: T1, aromatase (Rattus norvegicus, UniProt P22443); test: biochemical; conditions: rat ovarian microsomes; substrate (androstenedione) concentration 0.1 μM; inhibitors tested between 0.005 and 10 μM
T1 sequence (P22443 1-508): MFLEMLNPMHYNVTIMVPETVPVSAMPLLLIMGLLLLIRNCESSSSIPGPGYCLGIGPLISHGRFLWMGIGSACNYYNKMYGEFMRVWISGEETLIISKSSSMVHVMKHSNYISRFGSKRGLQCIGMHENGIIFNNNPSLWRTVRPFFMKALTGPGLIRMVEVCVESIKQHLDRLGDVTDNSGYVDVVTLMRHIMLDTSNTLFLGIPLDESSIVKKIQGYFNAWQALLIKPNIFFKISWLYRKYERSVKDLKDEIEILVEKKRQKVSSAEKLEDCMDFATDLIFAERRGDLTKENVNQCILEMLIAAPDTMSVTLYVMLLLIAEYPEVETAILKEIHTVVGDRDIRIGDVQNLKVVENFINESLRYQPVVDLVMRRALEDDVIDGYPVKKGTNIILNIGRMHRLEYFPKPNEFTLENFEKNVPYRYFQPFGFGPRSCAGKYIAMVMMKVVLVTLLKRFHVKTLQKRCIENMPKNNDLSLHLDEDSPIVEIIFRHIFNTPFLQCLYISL
Experimental: In this test system, ovarian microsomes are obtained from rats treated with pregnant mares serum gonadotropin. Test compounds are added to reaction vials containing 0.1 μM 4-androstene-3,17-dione, 100,000 dpm 1,2[^3 H]-androstenedione, the microsomes and a NADPH generating system.

[2] = test system: breast cancer; conditions: known aromatase inhibitors; Cancer Research, Vol. 42, Suppl. 8:3261s (1982); cited from earlier work

| SMILES | EC50 [1] | effect in treatment of breast cancer [2] |
| --- | --- | --- |
| c1ccc(C(c2ccccc2)(c2ccns2)n2cncn2)cc1 [Example 2, 5-(Diphenyl-1H-1,2,4-triazol-1-ylmethyl)-isothiazole] | 257 nM | – |
| Clc1ccc(C(c2ccc(Cl)cc2)(c2ccns2)n2cncn2)cc1 [Example 7, 1-[Bis(4-chlorophenyl)-5-isothiazolemethyl]-1H-1,2,4-triazole] | 51 nM | – |
| CCC1(c2ccc(N)cc2)CCC(=O)NC1=O (stereo not shown) [aminoglutethimide] | – | beneficial effect |
| C[C@]12C=CC(=O)C=C1CC[C@@H]1[C@@H]2CC[C@]2(C)OC(=O)CC[C@@H]12 [testolactone] | – | beneficial effect |
